Measured values from US20100204295A1, “TREATMENT OF ALLERGIC DISEASE WITH IMMUNOMODULATOR COMPOUNDS” (SCICLONE PHARMACEUTICALS, INC., priority 2007, published 2010).

How the values were obtained:
interferon-γ = experiment: ConA-induced IFN-γ production by splenocytes after intra-abdominal SCV-07; type: in vivo, mice; settings: 1 μg/kg, five daily intra-abdominal injections; ConA 5 μg/mL
Procedure: SCV-07 was administered to intact wild mice in the form of five daily intra-abdominal injections at dosages of 0.1 and 1.0 μg/kg of body weight. After this, isolation of spleen cells was carried out the cytokine synthesis was induced in the culture by stimulating the cells with concanavalin A at a dosage of 5 μg/mL. The levels of the synthesized cytokines were determined by quantitative immunoenzyme analysis. […] The changes on ConA-induced production of two other [sic] cytokines—IFN-γ and IL-4, as is apparent from FIG. 1, were reciprocal in nature.

pollinosis = experiment: Case report: SCV-07 before specific immunotherapy of pollinosis; type: in vivo, human; settings: SCV-07 perorally 1.5 mg once a day for 10 days, 15 days before SIT; season April-June 2006
Procedure: Patient.—P-na M. N., 45 years. Date of first consultation—October 2004. From the end of November 2004 to mid-March 2005, the patient underwent specific immunotherapy (SIT) for pollinosis, using the allergoid (“Puretal-tree”) according to the scheme: subcutaneous once a week, beginning with a single dose of the administered allergoid of 0.025 mL, the subsequent dose are escalated during the course of treatment until reaching a single dose of 0.5 mL (0.025 mL-0.05 mL, −0.1 mL-0.2 mL-0.3 mL-0.4 mL-0.5 mL), and the following does are staying on this dose. Considering the above situation, during October 2005, to increase the clinical effectiveness of SIT, under initiating or anticipatory conditions, immune stimulation—a course of the preparation “SCV-07” —was perorally administered as follows: 1.5 mg once a day daily for 10 days in a row. On completion of the “SCV-07” course, the patient, from the middle of November 2005 through mid-March 2006, underwent another course of SIT for pollinosis, using the allergoid “Puretal-tree” according to the previous scheme. The interval between the “SCV-07” course and the beginning of the SIT course for pollinosis was 15 days.

BAL cells = experiment: BAL white blood cells and differentials, guinea pig model; type: in vivo, Dunkin-Hartley guinea pigs
Procedure: Animals were sensitized on day 0 ip with 50 mg/kg OVA. On Days 17, 18, 19, and 20, animals received an ip injection between 8 and 10 am with PBS, SCV-07 at 1 ug/kg, or SCV-07 at 10 ug/kg (Peptide treatment). Between 8 and 10 a.m. on Day 21, animals were administered peptide 2 hours before OVA or saline (NSS) aerosol challenge. 30 min before OVA or NSS aerosol challenge each animal was injected ip with an antihistamine (6.1 mg/kg pyrilamine maleate) to prevent death due to the anaphylactic response that accompanies aerosol OVA challenge. Animals were exposed to aerosol in pairs with either 1% OVA solution or NSS for 5 min in a plexiglass chamber (22×22×29 cm) using a DeVilbiss Model 35B Ultrasonic Nebulizer. Animals were observed during the total 5 min aerosolization and comments recorded. Within 22-24 hours after challenge, animals were euthanized, bled by cardiac puncture, lavaged and lung lobes removed for measurement of cellular infiltration. At the time of OVA or NSS challenge and euthanasia, animal weights ranged from approximately 350-550 g, with the average weight approximately 420 g. This experimental protocol is similar to that used in previously published studies (Regal and Fraser, 1996; Regal et al., 2000). Animals were euthanized with pentobarbital (100-200 mg/kg), bled by cardiac puncture, and lavaged with room temperature PBS. For bronchoalveolar lavage (BAL), the trachea was cannulated and 4 volumes of PBS were introduced into the tracheal cannula and gently withdrawn. Total lavage volume was 60 ml/kg. The BAL was centrifuged to sediment the cells, and the BAL cell pellet re-suspended in 1.0 ml PBS for determination of the total number of white blood cells (WBC) recovered in the BAL of each animal. The BAL supernatant was frozen at −70 C for determination of total protein recovered in the BAL supernatant using the method of Lowry et al. (1951). Total white blood cells in BAL were counted by standard methods in a hemacytometer using Turk's solution. Differential counts were obtained from cytospin preparations of BAL cells (3×10^4 cells) stained with a modified Wrights' stain (Diff Quik, American Scientific Products, McGraw Park, Ill.). Four hundred cells were counted and identified as eosinophils, neutrophils, or mononuclear cells. […] EPO activity from the homogenized lung after lavage was expressed as total OD/min from the left caudal lobe. MPO activity from the homogenized lung after lavage was expressed as total units of enzyme activity from the right caudal lobe. […] OD412 of the BAL supernatant was also determined to estimate the number of RBCS that were lysed during the lavage procedure and prior to re-suspension of the cells for counting. […]

spleen lymphocytes = settings: cited from earlier work

With `N[C@H](CCC(=O)N[C@@H](Cc1c[nH]c2ccccc12)C(=O)O)C(=O)O` [SCV-07, γ-D-glutamyl-L-tryptophan] as the compound, how does the “Change in ConA-induced IFN-γ production by the splenocytes” value (interferon-γ) read?
Its value is “almost five-fold increase”.

What about the “Seasonal rhinoconjunctival symptoms after SIT preceded by SCV-07 course” value (pollinosis) of the same compound?
Its value is “seasonal rhinoconjunctival symptoms were virtually absent”.

What about the “Change in BAL neutrophils from NSS to OVA” value (BAL cells; 1 ug/kg, ANOVA contrast vs PBS treatment) of the same compound?
Its value is “differed”.

What about the “Composition of cells in the BAL of control animals challenged with NSS” value (BAL cells; NSS aerosol, 1 or 10 ug/kg) of the same compound?
The value was “did not significantly affect”.

And the “Total eosinophils in the BAL” value (BAL cells; OVA aerosol challenge)?
Its value is “did not change”.

And the “% eosinophils in the BAL” value (BAL cells; OVA aerosol challenge, not statistically significant)?
Its value is “tended to decrease”.

And the “Con-A-induced interleukin-2 (IL-2) production by spleen lymphocytes” value (spleen lymphocytes)?
Its value is “increases”.

And the “IL-2 receptor expression by spleen lymphocytes” value (spleen lymphocytes)?
The value was “increases”.
